Assay [1] concerns the target T1, RccR (PA5438) (Pseudomonas aeruginosa, UniProt Q9HTC8).
T1 construct: tetramer in crystal
In words: isothermal titration calorimetry. The class given is binding. (ITC needs no label: the signal is the heat of the interaction.)

Assay [2] concerns the target RccR (PA5438) (Pseudomonas aeruginosa, UniProt Q9HTC8, S188A). In words: biochemical.
Assay [3] deals with RccR (PA5438) (Pseudomonas aeruginosa, UniProt Q9HTC8, S185A). In words: biochemical.
Assay [4] concerns the target RccR (PA5438) (Pseudomonas aeruginosa, UniProt Q9HTC8, S183A). In words: biochemical.
Assay [5] has as its target T1, RccR (PA5438). Description: X-ray crystal structure of the complex, […] Å. The class given is binding. As to conditions: space group I222, four monomers each with KDPG; PDB code not given.

T1 sequence (Q9HTC8 entry or part of it): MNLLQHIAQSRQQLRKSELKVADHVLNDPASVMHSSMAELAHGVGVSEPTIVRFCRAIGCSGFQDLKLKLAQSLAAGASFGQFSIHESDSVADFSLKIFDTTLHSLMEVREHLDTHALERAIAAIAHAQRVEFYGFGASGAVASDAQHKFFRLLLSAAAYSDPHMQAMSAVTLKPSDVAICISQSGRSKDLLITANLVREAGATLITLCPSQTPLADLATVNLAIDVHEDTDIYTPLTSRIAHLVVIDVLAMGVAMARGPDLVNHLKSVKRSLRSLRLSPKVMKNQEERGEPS
Chain of RccR (PA5438) (Pseudomonas aeruginosa, UniProt Q9HTC8, S188A) (Q9HTC8 whole entry S188A): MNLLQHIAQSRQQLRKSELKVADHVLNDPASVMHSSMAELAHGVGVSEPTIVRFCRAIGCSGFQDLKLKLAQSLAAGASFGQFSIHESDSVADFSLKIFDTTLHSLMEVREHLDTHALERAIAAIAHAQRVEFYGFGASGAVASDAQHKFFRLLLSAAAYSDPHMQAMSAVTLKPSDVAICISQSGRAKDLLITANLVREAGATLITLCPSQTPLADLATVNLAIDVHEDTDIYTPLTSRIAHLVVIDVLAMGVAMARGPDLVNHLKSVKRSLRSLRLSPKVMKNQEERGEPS
Chain of RccR (PA5438) (Pseudomonas aeruginosa, UniProt Q9HTC8, S185A) (Q9HTC8 whole entry S185A): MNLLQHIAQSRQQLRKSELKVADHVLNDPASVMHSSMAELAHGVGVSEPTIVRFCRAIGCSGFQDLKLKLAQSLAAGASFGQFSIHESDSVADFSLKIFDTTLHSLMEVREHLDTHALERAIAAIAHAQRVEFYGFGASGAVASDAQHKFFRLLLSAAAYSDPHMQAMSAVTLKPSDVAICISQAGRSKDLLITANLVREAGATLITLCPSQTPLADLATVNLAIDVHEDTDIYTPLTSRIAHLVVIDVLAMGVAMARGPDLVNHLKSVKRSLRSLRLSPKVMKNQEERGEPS
Chain of RccR (PA5438) (Pseudomonas aeruginosa, UniProt Q9HTC8, S183A) (Q9HTC8 whole entry S183A): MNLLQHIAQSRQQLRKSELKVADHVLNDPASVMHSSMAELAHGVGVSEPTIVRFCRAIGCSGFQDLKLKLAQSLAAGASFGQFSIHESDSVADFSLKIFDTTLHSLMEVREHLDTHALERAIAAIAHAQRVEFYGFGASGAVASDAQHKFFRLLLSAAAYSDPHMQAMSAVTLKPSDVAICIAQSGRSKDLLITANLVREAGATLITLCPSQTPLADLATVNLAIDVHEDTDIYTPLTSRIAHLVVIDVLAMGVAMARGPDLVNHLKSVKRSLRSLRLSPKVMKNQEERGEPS

For `O=C(O)C(=O)C[C@H](O)[C@H](O)COP(=O)(O)O` [KDPG], the Kd amounted to 3.31 µM in assay [1], 15.7 µM in assay [2], 21 µM in assay [3] and 28.7 µM in assay [4]. In addition, the “X-ray crystal structure of the complex, 1.9 Å” value in assay [5] is given as “Each monomer in this complex structure harbors a well-defined signal molecule KDPG”.

By Kd is commonly meant the free concentration of one partner at which half of the binding sites on the other are occupied at equilibrium, for simple one-to-one binding.

The values above are taken from paper PMC10810197, “A KDPG sensor RccR governs Pseudomonas aeruginosa carbon metabolism and aminoglycoside antibiotic tolerance” (Nucleic Acids Research, 2023).
